What was measured:
[1] = tested on: Chrysosporium keratinophilum; assay: agar plate disc-diffusion, antifungal activity by inhibition zone; type: cell-based; conditions: Sabouraud's dextrose agar, 72 hours
Experimental: (§1) The agar plate disc-diffusion method was applied. […] The discs were then placed onto the surface of agar plates (nutrient agar for bacteria and Sabouraud's dextrose agar for fungi) seeded with the test organism. Each plate contained 15 mL of the agar medium, previously seeded with 0.2 mL of the broth culture of each organism pregrown for 18 hours. The plates were incubated at 37° C. for 48 hours, and 72 hours for fungi. The inhibition zones was measured in mm. Discs impregnated with DMSO were used as a control, and its inhibition zone was subtracted from the tested compound actual inhibition zone.

[2] = tested on: Aspergillus flavus; assay: as above; type: cell-based; conditions: Sabouraud's dextrose agar, 72 hours
Experimental: as §1

[3] = tested on: Escherichia coli; assay: agar plate disc-diffusion, antibacterial activity by inhibition zone; type: cell-based; conditions: nutrient agar, 37° C., 48 hours
Experimental: as §1

[4] = tested on: Pseudomonas aeruginosa; assay: as above; type: cell-based; conditions: nutrient agar, 37° C., 48 hours
Experimental: as §1

[5] = tested on: Staphylococcus aureus; assay: as above; type: cell-based; conditions: nutrient agar, 37° C., 48 hours
Experimental: as §1

[6] = tested on: Bacillus cereus; assay: as above; type: cell-based; conditions: nutrient agar, 37° C., 48 hours
Experimental: as §1

[7] = tested on: different microbes; assay: antimicrobial activity, overall statement; type: cell-based; conditions: summary in words
Experimental: The agar plate disc-diffusion method was applied. Sterilized filter papers (6 mm in diameter) were wetted with 10 μL of a solution N′-(1-naphthoyloxy)-2-(benzo[d]oxazol-2-yl)acetimidamide (3) to be tested, containing 10 mg/mL in DMSO, and the discs were allowed to air dry. The discs were then placed onto the surface of agar plates (nutrient agar for bacteria and Sabouraud's dextrose agar for fungi) seeded with the test organism. Each plate contained 15 mL of the agar medium, previously seeded with 0.2 mL of the broth culture of each organism pregrown for 18 hours. The plates were incubated at 37° C. for 48 hours, and 72 hours for fungi. The inhibition zones was measured in mm. Discs impregnated with DMSO were used as a control, and its inhibition zone was subtracted from the tested compound actual inhibition zone.

[8] = A = concentration of comp. = 10,000 μL
[9] = B = concentration of comp. = 30,000 μL
[10] = C = concentration of comp. = 50,000 μL

N/C(Cc1nc2ccccc2o1)=N\OC(=O)c1cccc2ccccc12 [compound 3, N′-(1-naphthoyloxy)-2-(benzo[d]oxazol-2-yl)acetimidamide]
melting point: 131 to 132 °C | inhibition zone, Chrysosporium keratinophilum [1, 8]: 27 mm | inhibition zone, Chrysosporium keratinophilum [1, 9]: 30 mm | inhibition zone, Chrysosporium keratinophilum [1, 10]: 51 mm | inhibition zone, Aspergillus flavus [2, 8]: 24 mm | inhibition zone, Aspergillus flavus [2, 9]: 26 mm | inhibition zone, Aspergillus flavus ([2]; C =): 37 mm | inhibition zone, Escherichia coli [3, 8]: 27 mm | inhibition zone, Escherichia coli [3, 9]: 34 mm | inhibition zone, Escherichia coli [3, 10]: 51 mm | inhibition zone, Pseudomonas aeruginosa [4, 8]: 22 mm | inhibition zone, Pseudomonas aeruginosa [4, 9]: 24 mm | inhibition zone, Pseudomonas aeruginosa [4, 10]: 38 mm | inhibition zone, Staphylococcus aureus [5, 8]: 26 mm | inhibition zone, Staphylococcus aureus [5, 9]: 30 mm | inhibition zone, Staphylococcus aureus [5, 10]: 38 mm | inhibition zone, Bacillus Cereus [6, 8]: 23 mm | inhibition zone, Bacillus Cereus [6, 9]: 27 mm | inhibition zone, Bacillus Cereus [6, 10]: 36 mm | antimicrobial activities against different microbes [7]: excellent antimicrobial activities
